Data published in EP4763847A1 (Jiangsu Yahong Meditech Co., Ltd., priority 2023, dated 2025).

What was measured:
HCT116 MTAP KO = assay: Cell proliferation inhibition (CellTiter Glo), HCT116 MTAP KO cells; assay type: cell-based; details: Homo sapiens, HCT-116, 144 h, cultured 6 days with compound
Protocol: (§1) Test Example 2: Test of cell proliferation inhibition activity of the compounds
(§2) HCT116-WT (ATCC, CCL-247) and HCT116 MTAP KO (Cobioer Nanjing, CBP75002) cells were seeded into white low-transparency 96-well sterile cell culture plates at a density of 250 cells per well, respectively. The culture medium was McCoy's 5A Medium + 10% FBS. The plates were incubated overnight at 37°C with 5% CO2. The cells were treated with compounds gradiently with an initial concentration of 10000 nM, 4-fold dilution, and 8 concentration points. The last two columns were control wells with only DMSO added. The treated cells were continued to be cultured for 6 days. On the seventh day, 50 µL of CellTiter Glo® reagent was added to each well. After reacting on a shaker at room temperature for 10 minutes, the chemiluminescence signal in the plate was detected using the chemiluminescence detection method on a BIOTEK H1 multi-mode plate reader. […] Table 2: IC50 values of compounds for HCT116 MTAP KO/WT cell growth inhibition

PRMT5-MTA = PRMT5-MTA (Homo sapiens, UniProt O14744); assay: biochemical; details: IC50 (nM), PRMT5+MTA enzyme activity inhibition; PRMT5/MET50 protein 1 nM, 5'-deoxy-5'-adenosine 1 µM, SAM 2.5 µM, Histone H4 substrate 5 nM
PRMT5-MTA, sequence (O14744 whole entry): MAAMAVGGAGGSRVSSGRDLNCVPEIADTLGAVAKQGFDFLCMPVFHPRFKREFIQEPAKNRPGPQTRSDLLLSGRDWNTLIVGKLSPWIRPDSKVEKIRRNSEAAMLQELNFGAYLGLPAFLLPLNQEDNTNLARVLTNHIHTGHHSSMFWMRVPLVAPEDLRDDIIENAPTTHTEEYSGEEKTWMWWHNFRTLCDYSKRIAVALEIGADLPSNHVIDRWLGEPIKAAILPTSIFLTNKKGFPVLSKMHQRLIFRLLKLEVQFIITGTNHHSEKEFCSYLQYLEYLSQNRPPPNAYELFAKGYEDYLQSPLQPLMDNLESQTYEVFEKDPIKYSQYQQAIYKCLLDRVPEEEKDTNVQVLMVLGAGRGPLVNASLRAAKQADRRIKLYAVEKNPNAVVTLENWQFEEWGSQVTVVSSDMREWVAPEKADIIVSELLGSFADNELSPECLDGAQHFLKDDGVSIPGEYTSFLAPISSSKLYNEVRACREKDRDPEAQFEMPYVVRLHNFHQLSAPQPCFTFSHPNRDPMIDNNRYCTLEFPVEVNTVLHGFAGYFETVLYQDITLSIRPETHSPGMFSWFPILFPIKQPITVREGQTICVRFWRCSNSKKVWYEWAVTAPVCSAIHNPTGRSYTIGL
PRMT5-MTA, sequence (Q9BQA1 whole entry partner): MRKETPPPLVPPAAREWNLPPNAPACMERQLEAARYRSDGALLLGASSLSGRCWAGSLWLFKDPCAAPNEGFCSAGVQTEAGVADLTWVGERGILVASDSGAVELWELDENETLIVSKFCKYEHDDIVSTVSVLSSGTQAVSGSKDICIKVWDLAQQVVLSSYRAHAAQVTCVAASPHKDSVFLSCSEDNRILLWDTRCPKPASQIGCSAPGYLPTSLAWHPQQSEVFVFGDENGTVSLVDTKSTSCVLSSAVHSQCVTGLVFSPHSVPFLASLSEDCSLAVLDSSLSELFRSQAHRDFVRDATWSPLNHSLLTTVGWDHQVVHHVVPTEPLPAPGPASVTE
Protocol: The enzymatic inhibition activity of the compounds against PRMT5-MTA was detected using the AlphaScreen method. A 1× methyltransferase assay buffer IV (Signalchem) was prepared as a dilution solution for each component of the enzymatic reaction. […] The test compounds were added to all wells except the control wells in a 3-fold dilution series of 10 concentration points starting from 1000 nM using a Tecan D300e. After centrifugation at 1000 rpm for 1 minute in a centrifuge, the plate was incubated at 23°C for 15 minutes. Histone H4 substrate at a final concentration of 5 nM was added to the plate at 4 µL per well. After centrifugation at 1000 rpm for 1 minute in a centrifuge, the plate was reacted in an incubator at 23°C for 45 minutes. Anti-Histone H4 (symmetric dimethyl R3) antibody (Abcam) was pre-incubated with 50 µg/mL AlphaScreen Protein A Acceptor beads (PerkinElmer) at room temperature for 10 minutes, and then added to the plate in a volume of 10 µL per well, followed by reaction at room temperature for 1 hour. 10 µL of 50 µg/mL AlphaScreen Streptavidin Donor beads (PerkinElmer) were added to each well, and reacted at room temperature for 1 hour. The signal values in the plate were detected using the Alpha method on an Envision multi-mode plate reader. The IC50 values of the compounds for PRMT5/MET50 enzyme activity inhibition were calculated in Xlfit 5.0 software.

HCT116-WT = assay: Cell proliferation inhibition (CellTiter Glo), HCT116-WT cells; assay type: cell-based; details: 144 h, cultured 6 days with compound
Protocol: as §1, §2

Row | SMILES | IC50 (HCT116 MTAP KO) [nM] | IC50 (PRMT5-MTA) [nM] | IC50 (HCT116-WT) [nM]
1 | CNC(N)=Nc1ccc(C(=O)N(Cc2ccc(C(F)(F)F)cn2)C2CCCc3ccccc32)cn1 (stereo not drawn) [Compound 61] | 28 | 1.4 | 769
2 | CNC(N)=Nc1ccc(C(=O)N(Cc2ccc(C(F)(F)F)cn2)n2ccc3ccccc32)cn1 [Compound 62] | 76 | 4.1 | 1790
3 | CNC(N)=Nc1ccc(C(=O)N(Cc2ccc(C(F)(F)F)cn2)N2CCc3ccccc32)cn1 [Compound 64] | 63 | 3.2 | 1960
4 | CN/C(N)=N\c1ccc(C(=O)N(Cc2ccc(-c3ccc(N4CCOCC4)nc3)cn2)[C@H](C)c2ccccc2F)cn1 [Compound 67, (R,Z)-6-((amino(methylamino)methylene)amino)-N-(1-(2-fluorophenyl)ethyl)-N-((6'-morpholino-[3,3'-bipyridin]-6-yl)methyl)nicotinamide] | 145 | 5.7 | 672
5 | CNC(N)=Nc1ccc(C(=O)N(Cc2ccc(-c3cccnc3)cn2)[C@H](C)c2ccccc2F)cn1 [Compound 68] | 169 | 7.7 | 1990
6 | CNC(N)=Nc1ccc(C(=O)N(Cc2ccc(-c3cnn(C(F)(F)F)c3)cn2)[C@H](C)c2ccccc2F)cn1 [Compound 69] | 50 | 4.8 | 643
7 | CNC(N)=Nc1ccc(C(=O)N(Cc2ccc(-c3cnc(C)nc3)cn2)[C@H](C)c2ccccc2F)cn1 [Compound 70] | 150 | 3.9 | 2580
8 | CNC(N)=Nc1ccc(C(=O)N(Cc2ccc(-c3ccc(C)nc3)cn2)[C@H](C)c2ccccc2F)cn1 [Compound 71] | 62 | 7.7 | 1090
9 | CNC(N)=Nc1ccc(C(=O)N(Cc2ccc(-c3cnc4c(cnn4C)c3)cn2)[C@H](C)c2ccccc2F)cn1 [Compound 73] | 72 | 6.5 | 1080
10 | CNC(N)=Nc1ccc(C(=O)N(Cc2ccc(C(C)F)cn2)[C@H](C)c2ccccc2F)cn1 (stereo partly drawn) [Compound 74, 6-((Z)-(amino(methylamino)methylene)amino)-N-((5-(1-fluoroethyl)pyridin-2-yl)methy 1)-N-((R)-1-(2-fluorophenyl)ethyl)nicotinamide] | 41 | 8 | 744
11 | CN/C(N)=N\c1ccc(C(=O)N(Cc2ccc(C(C)(C)F)cn2)[C@H](C)c2ccccc2F)cn1 [Compound 75, (R,Z)-6-((amino(methylamino)methylene)amino)-N-(1-(2-fluorophenyl)ethyl)-N-((5-(2-fluoropropan-2-yl)pyridin-2-yl)methyl)nicotinamide] | 36 | 2.6 | 844
12 | CN/C(N)=N\c1ccc(C(=O)N(Cc2ccc(C(C)(F)F)cn2)[C@H](C)c2ccccc2F)cn1 [Compound 76, (R,Z)-6-((amino(methylamino)methylene)amino)-N-((5-(1,1-difluoroethyl)pyridin-2-yl)methyl)-N-(1-(2-fluorophenyl)ethyl)nicotinamide] | 32 | 5.4 | 345
13 | CN/C(N)=N\c1ccc(C(=O)N(Cc2ccc(OC(F)(F)F)cn2)[C@H](C)c2ccccc2F)cn1 [Compound 77, (R,Z)-6-((amino(methylamino)methylene)amino)-N-(1-(2-fluorophenyl)ethyl)-N-((5-(trifluoromethoxy)pyridin-2-yl)methyl)nicotinamide] | 28 | 4 | 330
14 | CN/C(N)=N\c1ccc(C(=O)N(Cc2ccc3nc(C)sc3c2)[C@H](C)c2ccccc2F)cn1 [Compound 78, (R,Z)-6-((amino(methylamino)methylene)amino)-N-(1-(2-fluorophenyl)ethyl)-N-((2-methylbenzo[d]thiazol-6-yl)methyl)nicotinamide] | 287 | 7.7 | 1860
15 | CNC(N)=Nc1ccc(C(=O)N(Cc2ccc3sc(C4CCN(C)CC4)nc3c2)[C@H](C)c2ccccc2F)cn1 [Compound 79] | 782 | 3.1 | 3440
16 | CN/C(N)=N\c1ccc(C(=O)N(Cc2ccc(C(F)(F)F)cn2)[C@H](C)c2ccc(F)cc2F)cn1 [Compound 82, (R,Z)-6-((amino(methylamino)methylene)amino)-N-(1-(2,4-difluorophenyl)ethyl)-N-((5-(trifluoromethyl)pyridin-2-yl)methyl)nicotinamide] | 18 | 4.2 | 226
17 | CNC(N)=Nc1ccc(C(=O)N(Cc2ccc(C(F)(F)F)cn2)[C@@H]2CCc3ccccc32)cn1 [Compound 83] | 195 | 4 | 1710
18 | CNC(N)=Nc1ccc(C(=O)N(Cc2ccc(C(F)(F)F)cn2)[C@H](C)c2cc(F)ccc2F)cn1 [Compound 85] | 11 | 4 | 290
19 | CNC(N)=Nc1ccc(C(=O)N(Cc2ccc(C(F)(F)F)cn2)C2CCOc3ccccc32)cn1 (stereo not drawn) [Compound 86] | 60 | 0.7 | 867

Row | SMILES | IC50 (HCT116 MTAP KO) [nM] | IC50 (PRMT5-MTA) [nM] | IC50 (HCT116-WT) [nM]
20 | CNC(N)=Nc1ccc(C(=O)N(Cc2ccc(C(F)(F)F)cn2)[C@H]2CCc3ccccc32)cn1 [Compound 87] | 975 | 2.7 | 3310
21 | CNC(N)=Nc1ccc(C(=O)N(Cc2ccc(C(F)(F)F)cn2)C(C)c2ccccc2Cl)cn1 (stereo not drawn) [Compound 88] | 616 | 3.3 | 3840
22 | CNC(N)=Nc1ccc(C(=O)N(Cc2ccc(C(F)(F)F)cn2)[C@H](C)c2ccccc2F)cn1 [Compound 89] | 12 | 0.6 | 421
23 | CNC(N)=Nc1ccc(C(=O)N(Cc2ccc(C(F)(F)F)cn2)C2CCOc3cccnc32)cn1 (stereo not drawn) [Compound 90] | 81 | 1.5 | 1520
24 | CNC(N)=Nc1ccc(C(=O)N(Cc2ccc(C(F)(F)F)cn2)[C@H](C)c2cccc(F)c2F)cn1 [Compound 91] | 96 | 2.2 | 2010
25 | CN/C(N)=N\c1ccc(C(=O)N(Cc2ccc(C(F)(F)F)cn2)C2CCc3cccnc32)cn1 (stereo not drawn) [Compound 92, (Z)-6-((amino(methylamino)methylene)amino)-N-(6,7-dihydro-5H-cyclopenta[b]pyridin-7-yl)-N-((5-(trifluoromethyl)pyridin-2-yl)methyl)nicotinamide] | 134 | 1.6 | 1480
26 | CN/C(N)=N\c1ccc(C(=O)N(Cc2ccc(C(F)(F)F)cn2)C(c2ccccc2F)C2CC2)cn1 (stereo not drawn) [Compound 94, (Z)-6-((amino(methylamino)methylene)amino)-N-(cyclopropyl(2-fluorophenyl)methyl) -N-((5-(trifluoromethyl)pyridin-2-yl)methyl)nicotinamide] | 49 | 6.6 | 912
27 | CN/C(N)=N\c1ccc(C(=O)N(Cc2ccc(C(F)(F)F)cn2)[C@@H]2CCCc3ccccc32)cn1 [Compound 96, (R,Z)-6-((amino(methylamino)methylene)amino)-N-(1,2,3,4-tetrahydronaphthalen-1-yl) -N-((5-(trifluoromethyl)pyridin-2-yl)methyl)nicotinamide] | 22 | 3.5 | 366
28 | CN/C(N)=N\c1ccc(C(=O)N(Cc2ccc3nn(C)cc3c2)[C@H](C)c2ccccc2F)cn1 [Compound 97, (R,Z)-6-((amino(methylamino)methylene)amino)-N-(1-(2-fluorophenyl)ethyl)-N-((2-methyl-2H-indazol-5-yl)methyl)nicotinamide] | 353 | 3.1 | 5700
29 | CNC(N)=Nc1ccc(C(=O)N(Cc2ccc3cnccc3c2)[C@H](C)c2ccccc2F)cn1 [Compound 98] | 64 | 8.7 | 1090
30 | CNC(N)=Nc1ccc(C(=O)N(Cc2ccccc2)[C@H](C)c2ccccc2F)cn1 [Compound 99] | 445 | 4.6 | 3330
31 | CNC(N)=Nc1ccc(C(=O)N(Cc2ccc(F)c(C)c2)[C@H](C)c2ccccc2F)cn1 [Compound 101] | 352 | 3.1 | 1790
32 | CNC(N)=Nc1ccc(C(=O)N(Cc2ccc3c(cnn3C)c2)[C@H](C)c2ccccc2F)cn1 [Compound 102] | 50 | 2.6 | 667
33 | CNC(N)=Nc1ccc(C(=O)N(Cc2cscn2)[C@H](C)c2ccccc2F)cn1 [Compound 104] | 416 | 5.8 | > 10000
34 | CNC(N)=Nc1ccc(C(=O)N(Cc2ccc3ccsc3c2)[C@H](C)c2ccccc2F)cn1 [Compound 105] | 263 | 5.7 | 2230
35 | CNC(N)=Nc1ccc(C(=O)N(Cc2cccc(Cl)c2)[C@H](C)c2ccccc2F)cn1 [Compound 106] | 601 | 5.9 | 2890
36 | CNC(N)=Nc1ccc(C(=O)N(Cc2ccncc2)[C@H](C)c2ccccc2F)cn1 [Compound 107] | 474 | 4 | 8230
37 | CNC(N)=Nc1ccc(C(=O)N(Cc2ccc(C(F)(F)F)cc2)[C@H](C)c2ccccc2F)cn1 [Compound 108] | 48 | 7.9 | 452
